One assay deals with Vps34 enzyme (Homo sapiens (Human), UniProt Q8NEB9). Nature of the assay: Vps34 Biochemical Assay (Adapta kinase assay). The following applies: 20 μM ATP and 200 μM PI:PS substrate mix, 1 h at room temperature, TR-FRET, read-out: Median IC50 nM Adapta. The method, then:
Dilution series of compounds of the invention were prepared in DMSO at 100 times the final assay concentration (n1=n0/3 in 10 points). The compounds were further diluted to 4 times the assay concentration in assay buffer (Life technologies buffer Q, PV5125, diluted 5 times supplemented with 2 mM DTT and 2 mM MnCl2). 2.5 μl of the diluted compounds were added to a 384 well assay plate followed by 2.5 μl of 16.5 nM Vps34 enzyme (Life technologies, PV5126). Enzyme and compounds were pre-incubated at rt for 15 min. Then 5 μl of substrate mix containing 20 μM ATP (Life technologies, PV3227) and 200 μM PI:PS substrate (Life technologies, PV5122) in assay buffer was added to the wells containing compound and enzyme. Mixing was performed by pipetting several times. The reaction was incubated at room temperature for 1 h. Then 5 μl stop-detection mix, prepared as described in the Adapta kinase assay kit instructions (Life technologies, PV5099) containing Adapta Eu-anti-ADP antibody (2.3 nM), Alexa Fluor 647 ADP tracer (9 nM) and EDTA (30 mM) in TR-FRET buffer, was added to quench the reaction. Mixing was performed by pipetting several times. The assay plate was then incubated at room temperature for 30 min and read with Artemis micro plate reader. Percent inhibition of the compounds as compared to DMSO treated control samples was calculated. By the use of Dotmatics software compound concentration versus percent inhibition was fitted to generate IC50 values.

The test system of assay [1] is autophagy in HOS cells (GFP-LC3). Nature of the assay: High Content Screening Autophagy Assay (GFP-LC3 foci). The following applies: Homo sapiens; HOS cells expressing GFP-LC3; autophagy activated with KU-0063794 500 nM and Bafilomycin A1 5 nM; 6 hours; foci area per cell; read-out: Median IC50 nM Cellular assay (HOS-LC3). In kind it is cell-based. On the procedure: Human osteosarcoma cells (HOS) stably expressing a Green Fluorescent Protein (GFP) tagged LC3 (GFP-LC3) were used to determine the inhibitory effect on autophagy of proprietary compounds. For that purpose, autophagy was activated by using the mTOR inhibitor KU-0063794 at 500 nM in the presence of Bafilomycin A1 (Sigma-Aldrich) at 5 nM. Shortly, cells were plated overnight in clear bottom 96-well plates in DMEM-High Modified media (Hi-Clone Cat #SH30285.01). At the start of the experiment, the media was removed and replaced with fresh media containing the mTOR inhibitor, Bafilomycin A1 and the vehicle or a test compound as indicated. After 6 hours the media was removed, cells were washed twice with ice-cold phosphate buffered saline (PBS) and fixed with 4% paraformaldehyde for 20 minutes at room temperature. Then the cells were washed twice with ice-cold PBS before adding Hoechst 33342 at 1 μg/ml in PBS for nuclear staining. After incubation overnight at 4° C., cells were washed once with PBS to remove the excess of dye and 100 μl of PBS was added to each well. Images were acquired at 20× magnification, 6 images per well, using the ImageXpress automated microscope (Molecular Devices Inc.) and analyzed with MetaXpress software to identify LC3-GFP foci. Foci area per cell values were used to generate dose response curves and IC50 values were calculated using the non-linear fitting analysis in GraphPad Prism software. […] The results of the assay are shown in Table 2 (Median IC50 nM HOS-LC3).

The structures appear in SMILES notation. Some results are limits rather than exact numbers.

Vps34 enzyme, sequence (Q8NEB9 whole entry): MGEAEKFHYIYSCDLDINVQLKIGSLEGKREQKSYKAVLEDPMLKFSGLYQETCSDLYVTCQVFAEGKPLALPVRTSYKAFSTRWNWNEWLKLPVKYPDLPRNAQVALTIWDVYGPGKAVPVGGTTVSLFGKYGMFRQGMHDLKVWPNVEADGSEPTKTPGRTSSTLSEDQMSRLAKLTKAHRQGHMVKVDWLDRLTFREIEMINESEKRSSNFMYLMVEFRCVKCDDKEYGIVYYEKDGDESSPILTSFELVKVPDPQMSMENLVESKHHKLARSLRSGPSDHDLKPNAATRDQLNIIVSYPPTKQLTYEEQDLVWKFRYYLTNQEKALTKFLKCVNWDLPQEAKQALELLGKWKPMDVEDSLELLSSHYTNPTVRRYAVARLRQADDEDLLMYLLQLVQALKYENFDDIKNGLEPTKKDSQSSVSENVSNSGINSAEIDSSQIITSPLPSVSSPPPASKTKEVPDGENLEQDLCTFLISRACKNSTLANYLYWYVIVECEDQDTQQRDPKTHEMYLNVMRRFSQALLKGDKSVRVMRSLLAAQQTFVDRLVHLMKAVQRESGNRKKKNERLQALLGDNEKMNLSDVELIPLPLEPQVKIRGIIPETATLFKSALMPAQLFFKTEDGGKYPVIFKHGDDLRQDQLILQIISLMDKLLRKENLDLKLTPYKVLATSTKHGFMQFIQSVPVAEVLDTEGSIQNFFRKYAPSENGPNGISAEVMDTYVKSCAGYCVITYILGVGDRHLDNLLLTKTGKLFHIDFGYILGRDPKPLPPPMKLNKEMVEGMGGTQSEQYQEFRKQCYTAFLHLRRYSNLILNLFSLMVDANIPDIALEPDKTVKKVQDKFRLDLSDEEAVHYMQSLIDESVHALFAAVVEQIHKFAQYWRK

Usually IC50 stands for the concentration at which inhibition is half-maximal. Take `C[C@@H]1COCCN1c1cc(N2CCN(S(C)(=O)=O)CC2C(F)(F)F)[nH]c(=O)c1` (single isomer, unassigned) [Example 6-1]: the 50% inhibitory concentration (IC50) at Vps34 enzyme was under 5 nM; in assay [1], 33 nM.
For the molecule `C[C@@H]1COCCN1c1cc(N2CCN(S(C)(=O)=O)CC2C(F)(F)F)[nH]c(=O)c1` (single isomer, unassigned) [Example 6-2], the IC50 on Vps34 enzyme was 15 nM.
Turning to `C[C@@H]1COCCN1c1cc(N2CCN(S(=O)(=O)Cc3ccc(F)cc3)CC2C(F)(F)F)[nH]c(=O)c1` (stereo partly drawn) [Example 8, 6-[4-[(4-Fluorophenyl)methylsulfonyl]-2-(trifluoromethyl)piperazin-1-yl]-4-[(3R)-3-methylmorpholin-4-yl]-1H-pyridin-2-one], the IC50 at Vps34 enzyme is under 5 nM; in assay [1] it was 12 nM.
The like results for `C[C@@H]1COCCN1c1cc(N2CCN(S(=O)(=O)c3cncc(F)c3)CC2C(F)(F)F)[nH]c(=O)c1` (stereo partly drawn) [Example 10, 6-[4-[(5-Fluoro-3-pyridyl)sulfonyl]-2-(trifluoromethyl)piperazin-1-yl]-4-[(3R)-3-methylmorpholin-4-yl]-1H-pyridin-2-one] were, in that order, under 5 nM and 106 nM.
Regarding `C[C@@H]1COCCN1c1cc(N2CCN(S(=O)(=O)C3CCOC3)CC2C(F)(F)F)[nH]c(=O)c1` (stereo partly drawn) [Example 12, 4-[(3R)-3-methylmorpholin-4-yl]-6-[4-tetrahydrofuran-3-ylsulfonyl-2-(trifluoromethyl)piperazin-1-yl]-1H-pyridin-2-one], the IC50 at Vps34 enzyme was under 5 nM; in assay [1], 55 nM.
For the molecule `C[C@@H]1COCCN1c1cc(N2CCN(S(=O)(=O)N3CCCC3)CC2C(F)(F)F)[nH]c(=O)c1` (stereo partly drawn) [Example 14, 4-[(3R)-3-methylmorpholin-4-yl]-6-[4-pyrrolidin-1-ylsulfonyl-2-(trifluoromethyl)piperazin-1-yl]-1H-pyridin-2-one], on Vps34 enzyme, the IC50 is under 5 nM.
For `C[C@@H]1COCCN1c1cc(N2CCN(S(=O)(=O)N(C)C)CC2C(F)(F)F)[nH]c(=O)c1` (stereo partly drawn) [Example 16, N,N-dimethyl-4-[4-[(3R)-3-methylmorpholin-4-yl]-6-oxo-1H-pyridin-2-yl]-3-(trifluoromethyl)piperazine-1-sulfonamide], the IC50 on Vps34 enzyme is under 5 nM; in assay [1], 17 nM.
Turning to `COCCS(=O)(=O)N1CCN(c2cc(N3CCOC[C@H]3C)cc(=O)[nH]2)C(C(F)(F)F)C1` (stereo partly drawn) [Example 18, 6-[4-(2-Methoxyethylsulfonyl)-2-(trifluoromethyl)piperazin-1-yl]-4-[(3R)-3-methylmorpholin-4-yl]-1H-pyridin-2-one], the IC50 on Vps34 enzyme was under 5 nM; in assay [1] it was 83 nM.
The like results for `C[C@@H]1COCCN1c1cc(N2CCN(S(=O)(=O)c3ccc(F)cc3)CC2C(F)(F)F)[nH]c(=O)c1` (stereo partly drawn) [Example 20, 6-[4-(4-Fluorophenyl)sulfonyl-2-(trifluoromethyl)piperazin-1-yl]-4-[(3R)-3-methylmorpholin-4-yl]-1H-pyridin-2-one] were, in that order, under 5 nM and 223 nM.
Regarding `C[C@@H]1COCCN1c1cc(N2CCN(S(=O)(=O)c3ccnn3C)CC2C(F)(F)F)[nH]c(=O)c1` (stereo partly drawn) [Example 22, 4-[(3R)-3-methylmorpholin-4-yl]-6-[4-(2-methylpyrazol-3-yl)sulfonyl-2-(trifluoromethyl)piperazin-1-yl]-1H-pyridin-2-one], the half-maximal inhibitory concentration (IC50) in assay [1] came to 95 nM.
Still for that read-out and setting: with `C[C@@H]1COCCN1c1cc(N2CCN(S(=O)(=O)C3CC3)CC2C(F)(F)F)[nH]c(=O)c1` (stereo partly drawn) [Example 24, 6-[4-Cyclopropylsulfonyl-2-(trifluoromethyl)piperazin-1-yl]-4-[(3R)-3-methylmorpholin-4-yl]-1H-pyridin-2-one] the figure was 28 nM.
As to `C[C@@H]1COCCN1c1cc(N2CCN(S(=O)(=O)N3CCCCC3)CC2C(F)(F)F)[nH]c(=O)c1` (stereo partly drawn) [Example 26, 4-[(3R)-3-methylmorpholin-4-yl]-6-[4-(1-piperidylsulfonyl)-2-(trifluoromethyl)piperazin-1-yl]-1H-pyridin-2-one], the IC50 is under 5 nM on Vps34 enzyme and 139 nM in assay [1].
For the molecule `C[C@@H]1COCCN1c1cc(N2CCN(S(=O)(=O)N3CCOCC3)CC2C(F)(F)F)[nH]c(=O)c1` (stereo partly drawn) [Example 28, 4-[(3R)-3-methylmorpholin-4-yl]-6-[4-morpholinosulfonyl-2-(trifluoromethyl)piperazin-1-yl]-1H-pyridin-2-one], the IC50 in assay [1] was found to be 248 nM.
Consider `Cc1nc(S(=O)(=O)N2CCN(c3cc(N4CCOC[C@H]4C)cc(=O)[nH]3)C(C(F)(F)F)C2)cn1C` (stereo partly drawn) [Example 30, 6-[4-(1,2-Dimethylimidazol-4-yl)sulfonyl-2-(trifluoromethyl)piperazin-1-yl]-4-[(3R)-3-methylmorpholin-4-yl]-1H-pyridin-2-one], for which the IC50 on Vps34 enzyme is under 5 nM; in assay [1], 84 nM.
Take `C[C@@H]1COCCN1c1cc(N2CCN(S(=O)(=O)C3(C)CC3)CC2C(F)(F)F)[nH]c(=O)c1` (stereo partly drawn) [Example 31, 6-[4-(1-methylcyclopropyl)sulfonyl-2-(trifluoromethyl)piperazin-1-yl]-4-[(3R)-3-methylmorpholin-4-yl]-1H-pyridin-2-one]: the IC50 at Vps34 enzyme is under 5 nM.
Take `C[C@@H]1COCCN1c1cc(-c2ccc(S(C)(=O)=O)cc2C(F)(F)F)[nH]c(=O)c1` [Example 33, 4-[(3R)-3-methylmorpholin-4-yl]-6-[4-methylsulfonyl-2-(trifluoromethyl)phenyl]-1H-pyridin-2-one]: the IC50 at Vps34 enzyme is under 5 nM; in assay [1] it was 491 nM.
For `C[C@@H]1COCCN1c1cc(-c2ccc(S(=O)(=O)N(C)C)cc2C(F)(F)F)[nH]c(=O)c1` [Example 35, N,N-dimethyl-4-[4-[(3R)-3-methylmorpholin-4-yl]-6-oxo-1H-pyridin-2-yl]-3-(trifluoromethyl)benzenesulfonamide], the results for the IC50 (at Vps34 enzyme; in assay [1]) were under 5 nM and 458 nM, respectively.

The record behind these values is US11560374B2, “Morpholinylpyridone compounds” (Sprint Bioscience AB, priority 2017, dated 2023).
